Publication PMC10269926, “The LiaFSR-LiaX System Mediates Resistance of Enterococcus faecium to Peptide Antibiotics and to Aureocin A53- and Enterocin L50-Like Bacteriocins” (Microbiology Spectrum, 2023)
Converted amounts (≈) assume the structure as drawn. Read-outs that look alike come from different tables or passages of the source. Where no end group is shown, it is not given here.

Legend:
[1] = tested on: E. faecium LMGT 2783 and its spontaneous mutants; experiment: Effect of NaCl and SDS on bacterial growth (Bioscreen); format: cell-based, Enterococcus faecium; details: WT LMGT 2783 and all mutants, BHI, 37°C, 24 h, inoculum 1:100, lowest concentration (wt/vol) with at least 50% growth inhibition, at least triplicate
Procedure: (§1) The sensitivity of the mutants to AurA53- and EntL50-like bacteriocins, nisin, RAM, GRA, carbenicillin, and chlortetracycline was determined using microtiter plates with serial 2-fold dilutions of the antimicrobials, as described previously ([41]). The lowest concentration of the agent reducing visible bacterial growth by at least 50% was taken as the MIC (MIC50) value. The sensitivity to other antibiotics was determined using agar plates with antibiotic strips as described previously ([12]). The antibiotic concentration at the point where the inhibition zone intersected the strip was taken as the MIC value. The antibiotic susceptibilities of E. faecium LMGT 2783, MUT_130 to MUT_132, MUT_136 to MUT_139, and MUT_140 and MUT_141 were tested in ISO-BHI medium (Oxoid) supplemented with 5 μg/mL Em when appropriate, while those of E. faecium MUT_142 to MUT_149 were tested in CM17 medium supplemented with 5 μg/mL Em. To study the effects of NaCl and sodium dodecyl sulfate (SDS) on bacterial growth, saturated overnight cultures of E. faecium were used for inoculation at a dilution of 1:100 in BHI medium with serial dilutions of these compounds at concentrations of 0.5 to 10% (wt/vol) and 3.0 × 10^−2 to 2.5 × 10^−3% (wt/vol), respectively. […]

[2] = tested on: E. faecium MUT_140 (liaFSR deletion) and MUT_141 (liaFSR plus liaX deletion); experiment: Susceptibility of deletion strains as a group (microtiter MIC50 or antibiotic strips); format: cell-based, Enterococcus faecium; details: for Fold increase in sensitivity relative to WT: both deletion strains MUT_140 and MUT_141; for Effect of the deletions on sensitivity (in words): both deletion strains MUT_140 and MUT_141 compared with WT
Procedure: (§2) The sensitivity of the mutants to AurA53- and EntL50-like bacteriocins, nisin, RAM, GRA, carbenicillin, and chlortetracycline was determined using microtiter plates with serial 2-fold dilutions of the antimicrobials, as described previously ([41]). The lowest concentration of the agent reducing visible bacterial growth by at least 50% was taken as the MIC (MIC50) value. The sensitivity to other antibiotics was determined using agar plates with antibiotic strips as described previously ([12]). The antibiotic concentration at the point where the inhibition zone intersected the strip was taken as the MIC value. The antibiotic susceptibilities of E. faecium LMGT 2783, MUT_130 to MUT_132, MUT_136 to MUT_139, and MUT_140 and MUT_141 were tested in ISO-BHI medium (Oxoid) supplemented with 5 μg/mL Em when appropriate, while those of E. faecium MUT_142 to MUT_149 were tested in CM17 medium supplemented with 5 μg/mL Em. To study the effects of NaCl and sodium dodecyl sulfate (SDS) on bacterial growth, saturated overnight cultures of E. faecium were used for inoculation at a dilution of 1:100 in BHI medium with serial dilutions of these compounds at concentrations of 0.5 to 10% (wt/vol) and 3.0 × 10^−2 to 2.5 × 10^−3% (wt/vol), respectively. Bacterial cultures were incubated at 37°C without shaking for 24 h in a Bioscreen turbidometric automated analyzer (Bioscreen C, Growth Curves Ltd., Finland) in Honeycomb 100-well plates (Oy Growth Curves Ab Ltd.). […] The assays were made at least in triplicate.

[3] = tested on: spontaneous E. faecium BHT-B-resistant mutants
Procedure: Spontaneous resistant mutants were obtained by growing E. faecium LMGT 2783 in the presence of the bacteriocin as described previously ([41]). […] The stability of changes in BHT-B sensitivity was determined by continuously subculturing mutants in BHI broth without bacteriocin. Subcultures were formed at 24-h intervals, and sensitivity to BHT-B was validated after 1, 5, and 10 passages with simultaneous control of culture purity.
as §2

[4] = tested on: E. faecium MUT_143 (ΔliaFSR pGhost9 empty vector); experiment: MIC50, microtiter plates with serial 2-fold dilutions; format: cell-based, Enterococcus faecium; details: microtiter 2-fold dilutions, at least 50% growth reduction, CM17 + 5 μg/mL Em, mean of three biological replicates
Procedure: as §2

[5] = tested on: E. faecium MUT_150 (ΔliaFSR ΔliaX pGh:PptcB:liaSR); experiment: as above; format: cell-based, Enterococcus faecium; details: microtiter 2-fold dilutions, at least 50% growth reduction, CM17 + 5 μg/mL Em, mean of three biological replicates
Procedure: as §2

[6] = tested on: E. faecium MUT_146 (ΔliaFSR pGh:PptcB:liaSR); experiment: as above; format: cell-based, Enterococcus faecium; details: microtiter 2-fold dilutions, at least 50% growth reduction, CM17 + 5 μg/mL Em, mean of three biological replicates
Procedure: as §2

[7] = tested on: E. faecium MUT_147 (ΔliaFSR ΔliaX pGhost9 empty vector); experiment: as above; format: cell-based, Enterococcus faecium; details: microtiter 2-fold dilutions, at least 50% growth reduction, CM17 + 5 μg/mL Em, mean of three biological replicates
Procedure: as §2

[8] = tested on: E. faecium LMGT 2783 (WT); experiment: as above; format: cell-based, Enterococcus faecium; details: lowest concentration reducing visible growth by at least 50%, ISO-BHI medium, mean of three biological replicates
Procedure: as §2

[9] = tested on: E. faecium MUT_145 (ΔliaFSR pGh:PptcB:liaR); experiment: as above; format: cell-based, Enterococcus faecium; details: microtiter 2-fold dilutions, at least 50% growth reduction, CM17 + 5 μg/mL Em, mean of three biological replicates
Procedure: as §2

[10] = tested on: E. faecium MUT_144 (ΔliaFSR pGh:PptcB:liaS); experiment: as above; format: cell-based, Enterococcus faecium; details: microtiter 2-fold dilutions, at least 50% growth reduction, CM17 + 5 μg/mL Em, mean of three biological replicates
Procedure: as §2

[11] = tested on: E. faecium MUT_149 (ΔliaFSR ΔliaX pGh:PptcB:liaR); experiment: as above; format: cell-based, Enterococcus faecium; details: microtiter 2-fold dilutions, at least 50% growth reduction, CM17 + 5 μg/mL Em, mean of three biological replicates
Procedure: as §2

[12] = tested on: E. faecium MUT_148 (ΔliaFSR ΔliaX pGh:PptcB:liaS); experiment: as above; format: cell-based, Enterococcus faecium; details: microtiter 2-fold dilutions, at least 50% growth reduction, CM17 + 5 μg/mL Em, mean of three biological replicates
Procedure: as §2

[13] = tested on: E. faecium LMGT 2783 (WT); experiment: microbe, parasite or virus in culture
Procedure: as §2

[14] = tested on: E. faecium MUT_143 (ΔliaFSR pGhost9 empty vector); details: antibiotic strips on agar, CM17 + 5 μg/mL Em, mean of three biological replicates
Procedure: as §2

[15] = tested on: E. faecium MUT_150 (ΔliaFSR ΔliaX pGh:PptcB:liaSR); details: antibiotic strips on agar, CM17 + 5 μg/mL Em, mean of three biological replicates
Procedure: as §2

[16] = tested on: E. faecium MUT_146 (ΔliaFSR pGh:PptcB:liaSR); details: antibiotic strips on agar, CM17 + 5 μg/mL Em, mean of three biological replicates
Procedure: as §2

[17] = tested on: E. faecium MUT_147 (ΔliaFSR ΔliaX pGhost9 empty vector); details: antibiotic strips on agar, CM17 + 5 μg/mL Em, mean of three biological replicates
Procedure: as §2

[18] = tested on: E. faecium MUT_145 (ΔliaFSR pGh:PptcB:liaR); details: antibiotic strips on agar, CM17 + 5 μg/mL Em, mean of three biological replicates
Procedure: as §2

[19] = tested on: E. faecium MUT_144 (ΔliaFSR pGh:PptcB:liaS); details: antibiotic strips on agar, CM17 + 5 μg/mL Em, mean of three biological replicates
Procedure: as §2

[20] = tested on: E. faecium MUT_149 (ΔliaFSR ΔliaX pGh:PptcB:liaR); details: antibiotic strips on agar, CM17 + 5 μg/mL Em, mean of three biological replicates
Procedure: as §2

[21] = tested on: E. faecium MUT_148 (ΔliaFSR ΔliaX pGh:PptcB:liaS); details: antibiotic strips on agar, CM17 + 5 μg/mL Em, mean of three biological replicates
Procedure: as §2

[22] = tested on: E. faecium MUT_132; experiment: Effect of SDS on bacterial growth (Bioscreen); format: cell-based, Enterococcus faecium
Procedure: as §1

[23] = four mutants MUT_132, MUT_136, MUT_137, MUT_138, span over the mutants
[24] = LMGT 2783, WT, agar plates with antibiotic strips, point where inhibition zone intersects strip, ISO-BHI medium, mean of three biological replicates

| Compound | MIC50 [4] [µg/mL] | MIC50 [5] [µg/mL] | MIC50 [6] [µg/mL] | MIC50 [7] [µg/mL] | MIC50 [8] [µg/mL] | MIC50 [9] [µg/mL] | MIC50 [10] [µg/mL] | MIC50 [11] [µg/mL] | MIC50 [12] [µg/mL] | Effect of the deletions on sensitivity (in words) [2] | also measured |
| --- | --- | --- | --- | --- | --- | --- | --- | --- | --- | --- | --- |
| [Cl-].[Na+] [NaCl] | – | – | – | – | – | – | – | – | – | – | MIC50 [1]: 6% |
| nisin (ITSISLCTPGCKTGALMGCNMKTATCHCSIHVSK; not fully specified (some residues, bridges); cysteine pairing not given here; also: lantibiotic; UniProt P13068 24-57, looked up) [lantibiotic bacteriocin, ≥900 IU/mg, Glentham Life Sciences] | 8 | 16 | 16 | 8 | 125 | 16 | 8 | 16 | 8 | – | Fold increase in sensitivity relative to WT [2]: 16 fold; Fold-lower sensitivity than that of WT E. faecium [3, 23]: no more than 4 fold |
| ramoplanin | 0.3 | 0.6 | 0.3 | 0.3 | 0.4 | 0.3 | 0.3 | 0.6 | 0.3 | unaffected | – |
| enterocin L50 [EntL50] | 0.4 | 3.2 | 1.6 | 0.4 | 1.6 | 1.6 | 0.4 | 3.2 | 0.4 | – | – |
| NC[C@H]1O[C@H](O[C@H]2[C@H](O)[C@@H](O[C@H]3O[C@H](CO)[C@@H](O)[C@H](N)[C@H]3O)[C@H](N)C[C@@H]2N)[C@H](O)[C@@H](O)[C@@H]1O [KAN, kanamycin] | – | – | – | – | – | – | – | – | – | unaffected | MIC [13, 24]: 32 µg/mL (≈ 66 µM); MIC [14]: 32 µg/mL; MIC [15]: 128 µg/mL; MIC [16]: 64 µg/mL; MIC [17]: 32 µg/mL; MIC [18]: 64 µg/mL; MIC [19]: 32 µg/mL; MIC [20]: 128 µg/mL; MIC [21]: 32 µg/mL |
| bacitracin | – | – | – | – | – | – | – | – | – | – | MIC [13, 24]: 32 µg/mL; MIC [14]: 24 µg/mL; MIC [15]: 24 µg/mL; MIC [16]: 16 µg/mL; MIC [17]: 16 µg/mL; MIC [18]: 24 µg/mL; MIC [19]: 24 µg/mL; MIC [20]: 16 µg/mL; MIC [21]: 16 µg/mL |
| salivaricin C [SalC] | 12.5 | 50 | 50 | 12.5 | 25 | 50 | 12.5 | 50 | 12.5 | – | Fold-lower sensitivity than that of WT E. faecium [3, 23]: no more than 4 fold |
| CNC(C)C1CCC(N)C(OC2C(N)CC(N)C(OC3OCC(C)(O)C(NC)C3O)C2O)O1 (stereo not shown) [GEN, gentamicin] | – | – | – | – | – | – | – | – | – | unaffected | Fold-lower sensitivity than that of WT E. faecium ([3]; {}): 2-8 fold; MIC ([13]; Enterococcus faecium): 4 µg/mL (≈ 8.38 µM) |
| weissellicin M [WelM] | 6.3 | 50 | 25 | 6.3 | 6.3 | 25 | 6.3 | 50 | 6.3 | unaffected | – |
| gramicidin | 0.006 | 0.047 | 0.047 | 0.006 | 0.006 | 0.047 | 0.006 | 0.047 | 0.006 | unaffected | – |
| CCCCCCCCCC(=O)N[C@@H](Cc1c[nH]c2ccccc12)C(=O)N[C@H](CC(N)=O)C(=O)N[C@@H](CC(=O)O)C(=O)N[C@@H]1C(=O)NCC(=O)N[C@@H](CCCN)C(=O)N[C@@H](CC(=O)O)C(=O)N[C@H](C)C(=O)N[C@@H](CC(=O)O)C(=O)NCC(=O)N[C@H](CO)C(=O)N[C@@H]([C@H](C)CC(=O)O)C(=O)N[C@@H](CC(=O)c2ccccc2N)C(=O)O[C@@H]1C [DAP, daptomycin] | – | – | – | – | – | – | – | – | – | – | Fold increase in sensitivity relative to WT [2]: 48 fold; DAP MIC of the BHT-B-resistant mutants ([3]; BHT-B-resistant mutants obtained, antibiotic strips): ≤ 8 µg/mL; MIC [13, 24]: 3 µg/mL (≈ 1.85 µM); MIC [14]: 0.38 µg/mL; MIC [15]: 8 µg/mL; MIC [16]: 3 µg/mL; MIC [17]: 0.38 µg/mL; MIC [18]: 6 µg/mL; MIC [19]: 0.38 µg/mL; MIC [20]: 12 µg/mL; MIC [21]: 0.38 µg/mL |
| CCCCCCCCCCCCOS(=O)(=O)[O-].[Na+] [SDS, sodium dodecyl sulfate] | – | – | – | – | – | – | – | – | – | – | MIC50 [1]: 0.01%; MIC50 ([22]; MUT_132, BHI, 37°C, 24 h, Bioscreen C, lowest concentration (wt/vol) with at least 50% growth inhibition, at least triplicate): 0.005%; Fold increase in susceptibility ([22]; MUT_132 compared with the other strains): 2 fold |
| enterocin 7 [Ent7] | 0.4 | 1.6 | 1.6 | 0.4 | 1.6 | 1.6 | 0.4 | 1.6 | 0.4 | – | – |
